In patent US7666843B2, “Methods and compositions for treatment of neurological disorder” (Children's Medical Center Corporation, priority 2002, dated 2010):
“Also recorded” adds a separate entry of the source. Read-outs that look alike come from different tables or passages of the source.

What was measured:
Assay type in all cases: cell-based
[1] = test system: goldfish retinal ganglion cells; assay: Goldfish retinal ganglion cell culture, axon outgrowth bioassay; details: goldfish RGCs; for effect on axon growth induced by AF-1: 6-TG 20 μM, NBTI 20 μM, H89 5 μM, FIG. 2, 4; for effect on axon growth induced by AF-1 / axon growth induced by cAMP-elevating agent on its own: Sp-cAMPs 150 μM; for axon growth induced by cAMP-elevating agent on its own: FIG. 4; for axon outgrowth in response to monosaccharides: sugar alone, 50 or 100 μM, D-configuration, FIG. 7a
Experimental: Goldfish retinal ganglion cells are prepared as described in PCT application serial no. PCT/US98/03001, the contents of which are incorporated herein by reference, and contacted with a hexose derivative such as mannose. The ability of the hexose derivative to stimulate axonal outgrowth from the goldfish retinal ganglion cells is monitored as described in PCT application serial no. PCT/US98/03001.
Goldfish retinal ganglion cell cultures. Mammalian AF-1 was initially characterized in bioassays using dissociated goldfish retinal ganglion cells (RGCs). In brief, Comet variety goldfish (Mt. Parnell Fisheries, PA) were dark-adapted, cooled to 4° C., and killed by cervical transection. Retinas were dissected and dissociated by incubation in papain followed by a series of trituration steps that result in an RGC-enriched cell suspension (Schwartz & Agronoff,; Schwalb et al., 1995). Approximately 500 RGCs per well were plated together with the experimental samples to be tested in defined, serum-free media containing Leibovitz' L15 media (Gibco BRL) plus N1 and N2 supplements (Bottenstein, Saito), antioxidants, and bovine serum albumin as described in detail elsewhere (Schwalb et al., 1995). In each experiment, 4 wells of each sample were distributed in 24-well plates in a blinded fashion so that the person evaluating axon outgrowth was unaware of the type of sample present in each well. Experiments included a positive control (previously validated goldfish AF-1 or inosine) and a negative control (defined media alone), likewise distributed on the plate in quadruplicate in a blinded fashion. After 6 days in culture at 21° C., axon outgrowth, operationally defined as the percent of RGCs that extended an axon≧5 cell diameters in length, was evaluated in approximately 150 consecutively encountered RGCs per well. […] Data are presented as normalized means ± SEM. All experiments were repeated at least 3 times.

[2] = test system: goldfish retinal ganglion cells; assay: Goldfish retinal ganglion cell culture, cell survival; details: MH 10 mM, sugars at low micromolar concentrations
Experimental: Goldfish retinal ganglion cell cultures. Mammalian AF-1 was initially characterized in bioassays using dissociated goldfish retinal ganglion cells (RGCs). In brief, Comet variety goldfish (Mt. Parnell Fisheries, PA) were dark-adapted, cooled to 4° C., and killed by cervical transection. Retinas were dissected and dissociated by incubation in papain followed by a series of trituration steps that result in an RGC-enriched cell suspension (Schwartz & Agronoff,; Schwalb et al., 1995). Approximately 500 RGCs per well were plated together with the experimental samples to be tested in defined, serum-free media containing Leibovitz' L15 media (Gibco BRL) plus N1 and N2 supplements (Bottenstein, Saito), antioxidants, and bovine serum albumin as described in detail elsewhere (Schwalb et al., 1995). In each experiment, 4 wells of each sample were distributed in 24-well plates in a blinded fashion so that the person evaluating axon outgrowth was unaware of the type of sample present in each well. Experiments included a positive control (previously validated goldfish AF-1 or inosine) and a negative control (defined media alone), likewise distributed on the plate in quadruplicate in a blinded fashion. After 6 days in culture at 21° C., axon outgrowth, operationally defined as the percent of RGCs that extended an axon≧5 cell diameters in length, was evaluated in approximately 150 consecutively encountered RGCs per well. Data were analyzed by averaging axon growth in the 4 wells for each sample, subtracting the level of growth found in negative controls (typically 3-5%), and normalizing by the net growth in positive controls (usually 20-40%). Data are presented as normalized means ± SEM. All experiments were repeated at least 3 times.

[3] = test system: rat retinal ganglion cells; assay: Rat retinal ganglion cell culture, axon outgrowth; details: rat RGCs; for axon outgrowth, agent by itself: 3 days, no other factor added, forskolin 5 μM in FIG. 9a; for effect on axon growth induced by the low molecular weight vitreous factor (VE<3): FIG. 3a; for axon outgrowth in the presence of forskolin: compared to forskolin alone, glucose up to 5 mM, mannose-6-phosphate up to 10 mM, 9c
Excerpt: (§1) Rat retinal ganglion cell cultures. Retinal ganglion cells were identified by retrograde labeling with Fluorogold (FG: Fluorochrome, Inc.). […] After allowing 7 days for FG to be retrogradely transported up the optic nerve, rats were killed, eyes were removed, and the retinas dissected. Retinas were dissociated with papain treatment followed by trituration. Mixed cultures containing 100-150 FG-labeled RGCs per well were maintained in 24 well plates in a defined, serum-free media (Minimal Essential Media containing NaHCO3,) at 37° C. at 5% CO2 for 3 days.

[4] = test system: rat retinal ganglion cells; assay: Rat retinal ganglion cell culture, cell survival
Excerpt: as §1

O=C(CO)[C@@H](O)[C@@H](O)[C@H](O)[C@H](O)CO [MH, mannoheptulose]
effect on mannose-induced axon outgrowth ([1]; KT5720 1 μM, MH 10 mM, dBcAMP, late fraction with 50 μM mannose): had no effect on outgrowth induced by glucose or mannose; also recorded: has no effect on outgrowth induced by glucose or mannose
effect on glucose-induced axon outgrowth ([1]; glucose 10 μM (50 μM with late fraction), dBcAMP 1 mM, forskolin 10 μM, Rp-cAMPs 100 μM, 3-O-MG 100:1, 2-DG 1 mM, MH 10 mM): had no effect on outgrowth induced by glucose or mannose; also recorded: has no effect on outgrowth induced by glucose or mannose
cell survival (viable RGCs per field) [2]: detrimental to cell survival; also recorded: decreases cell survival

Nc1ncnc2c1ncn2[C@@H]1O[C@@H]2COP(O)(=S)O[C@H]2[C@H]1O (stereo partly shown) [Sp-cAMPs]
effect on axon growth induced by AF-1 ([1]; forskolin 10 μM, Rp-cAMPs 100 μM): non-statistically significant decrease in outgrowth
effect on axon growth induced by AF-1 ([1]; forskolin 10 μM, Rp-cAMPs 100 μM, listed as Sp-cAMP-s): not enhanced; also recorded: reduced the level of outgrowth
axon growth induced by cAMP-elevating agent on its own ([1]; forskolin 10 μM): Neither forskolin (10 μM) nor Sp-cAMPs (150 μM) induced growth on its own
axon growth induced by cAMP-elevating agent on its own ([1]; forskolin 10 μM, listed as Sp-cAMP-s): Neither forskolin nor Sp-cAMP-s by itself stimulated axon growth
axon outgrowth, agent by itself [3]: little effect on outgrowth
effect on axon growth induced by the low molecular weight vitreous factor (VE<3) [3]: greatly potentiated
effect on axon growth induced by the low molecular weight vitreous factor (VE<3) ([3]; listed as Sp-cAMP-s): strongly potentiates

O=C[C@H](O)[C@@H](O)[C@H](O)[C@H](O)CO [glucose, D-glucose]
axon outgrowth in response to monosaccharides [1]: stimulated as much outgrowth as the low molecular weight factor; also recorded: induced axon growth
level of axon growth relative to that seen with the vitreous extract ([1]; sugar by itself, FIG. 7d): about 70%
cell survival (viable RGCs per field) [2]: no effect on cell survival; also recorded: not related to any changes in cell survival
axon outgrowth in the presence of forskolin ([3]; with forskolin, FIG. 9a): failed to induce growth above the level of forskolin alone; also recorded: no effect whatsoever
axon outgrowth in the presence of forskolin ([3]; with forskolin, FIG. 9a, listed as Glucose): inactive
effect of added glucose on mannose-induced growth ([3]; with forskolin, high concentrations of glucose, FIG. 9a): not augmented further; also recorded: not altered

O=C[C@@H](O)[C@@H](O)[C@H](O)[C@H](O)CO [mannose, D-mannose]
EC50 ([1]; Carassius auratus, FIG. 7c, read-out: ED50 of axon outgrowth): ~10 µM
concentration at which the effect on axon outgrowth saturates ([1]; FIG. 7c): 25 to 50 µM
axon outgrowth in response to monosaccharides [1]: stimulated as much outgrowth as the low molecular weight factor; also recorded: induced axon growth
cell survival (viable RGCs per field) [2]: no effect on cell survival; also recorded: not related to any changes in cell survival
axon outgrowth, agent by itself [3]: marginally significant response
axon outgrowth, agent by itself ([3]; listed as D-mannose): little effect
axon outgrowth, agent by itself ([3]; listed as Mannose): small, marginally significant level of outgrowth
increase of axon outgrowth over baseline ([3]; in the presence of forskolin): 3 fold
EC50 ([3]; in the presence of forskolin, data not shown, read-out: ED50 of axon outgrowth): ~10 µM
axon outgrowth in the presence of forskolin ([3]; with forskolin, FIG. 9a): more than doubled the level axon growth induced by forskolin alone; also recorded: striking increase in outgrowth; also recorded: respond strongly
cell survival (viable RGCs per field) [4]: not related to cell survival; also recorded: independent of any changes in cell survival
cell survival (viable RGCs per field) ([4]; listed as D-mannose): unrelated to changes in cell survival
